Laboratory results from US11795213B2, “Methods and compositions for treating celiac disease” (Beth Israel Deaconess Medical Center, Inc., priority 2010, dated 2023).
Values belong to the molecule of their own block, whether it stands above or below them.

How the values were obtained:
THP-1 = assay: Cytokine secretion by stimulated THP-1 monocytic cells (ELISA); format: cell-based, human
Text: (§1) To examine how far gliadin elicits innate immune responses, we stimulated the human monocytic cell lines THP-1 and U937 with different concentrations of gliadin digested with pepsin and trypsin (PT gliadin) and measured secretion of proinflammatory cytokines in the supernatant. A digest of zein, partly homolgous storage proteins from corn that lack toxicity for patients with celiac disease, served as negative control. […] To rule out LPS contamination as trigger of innate responses, gliadin, LPS, and TNF-α were digested with proteinase K, completely digesting and abrogating all peptide-related activities.
(§2) THP-1, U937, HEK-293 (all from ATCC, Manassas, VA), and HEK-293 cells stably transfected with the TLR4-CD14-MD2 complex (Invivogen) were cultured in complete RPM or DMEM (Cellgro, Manassas, VA) supplemented with penicillin/streptomycin and 10% fetal calf serum at 37° C. in a 5% CO2 atmosphere.
(§3) For stimulation cells were seeded on polystyrene wells at a density of 1×10^6/ml. Unless otherwise stated supernatants were harvested after a 16 hr incubation with various stimulants.
After proteinase K inactivation by boiling for 5 minute the digests were used for cell stimulation.
(§4) The concentration of IL-8, TNF-α, MCP-1, RANTES, and mouse IL-8 (KC) in cell culture supernatants and serum samples was determined using validated ELISAs (IL-8, hTNFα: BD Pharmingen, San Jose, CA; MCP-1, hRANTES, mRANTES, KC: R&D Systems, (Minneapolis, MN; mTNFα: eBioscience, San Diego, CA), according to the manufacturer's protocols.

U937 = assay: Cytokine secretion by stimulated U937 monocytic cells (ELISA); format: cell-based, human; details: even at 40 μg/ml
Text: as §1, §2, §3, §4

[1] = system: intestinal epithelial cell lines (HT29, Caco-2 and T84); assay: Cytokine secretion by intestinal epithelial cell lines; format: cell-based; details: even at 40 μg/ml
Protocol: as §3, §4

celiac biopsies = details: shown previously; cited from earlier work
[2] = system: peritoneal macrophages of C3H/HeJ mice that lack TLR4 responses; assay: Cytokine secretion by peritoneal macrophages of TLR4 deficient C3H/HeJ versus C3H/HeOuJ mice; format: cell-based, mouse; details: TLR4 deficient C3H/HeJ compared to syngenic C3H/HeOuJ TLR4 competent mice
Protocol: Since MyD88 transmits signals from several TLRs, we studied peritoneal macrophages of C3H/HeJ mice that lack TLR4 responses due to a spontaneous point mutation in the TLR4 gene.
Murine resident peritoneal macrophages were isolated by peritoneal lavage using a 3 ml syringe and 18 G needles. Three 3 ml of sterile PBS was injected into the peritoneal cavity and reaspirated after gentle massage of the abdomen. For further purification MACS separation for CD11b positive cells was done according to the manufacturer's protocol (Miltenyi).
as §3
C3H/HeJ, C3H/HeOuJ and Rag1−/− mice were obtained from The Jackson Laboratory (Bar Harbour, ME). The MyD88−/− mice were a kind gift from S. Akira, (Osaka University, Osaka, Japan). Congenic C57BL/6J mice served as experimental controls and were bred under the same conditions in the same facility. All experiments were done with mice at age 5-7 weeks.
as §4

[3] = molecular target: T1, human TLR4-CD14-MD2-complex (Homo sapiens, UniProt O00206+Q9Y6Y9); assay: IL-8 secretion by HEK-293 cells transfected with TLR4-CD14-MD2 complex; format: cell-based; details: for IL-8 secretion: TLR4-CD14-MD2 transfected HEK-293; for stimulatory activity after additional purification using an endotoxin depletion column: 5 μg/ml, IL-8 after 24 h, FIG. 9C
T1 construct: host or cells: HEK-293 (stably transfected)
T1 sequence (O00206 24-839): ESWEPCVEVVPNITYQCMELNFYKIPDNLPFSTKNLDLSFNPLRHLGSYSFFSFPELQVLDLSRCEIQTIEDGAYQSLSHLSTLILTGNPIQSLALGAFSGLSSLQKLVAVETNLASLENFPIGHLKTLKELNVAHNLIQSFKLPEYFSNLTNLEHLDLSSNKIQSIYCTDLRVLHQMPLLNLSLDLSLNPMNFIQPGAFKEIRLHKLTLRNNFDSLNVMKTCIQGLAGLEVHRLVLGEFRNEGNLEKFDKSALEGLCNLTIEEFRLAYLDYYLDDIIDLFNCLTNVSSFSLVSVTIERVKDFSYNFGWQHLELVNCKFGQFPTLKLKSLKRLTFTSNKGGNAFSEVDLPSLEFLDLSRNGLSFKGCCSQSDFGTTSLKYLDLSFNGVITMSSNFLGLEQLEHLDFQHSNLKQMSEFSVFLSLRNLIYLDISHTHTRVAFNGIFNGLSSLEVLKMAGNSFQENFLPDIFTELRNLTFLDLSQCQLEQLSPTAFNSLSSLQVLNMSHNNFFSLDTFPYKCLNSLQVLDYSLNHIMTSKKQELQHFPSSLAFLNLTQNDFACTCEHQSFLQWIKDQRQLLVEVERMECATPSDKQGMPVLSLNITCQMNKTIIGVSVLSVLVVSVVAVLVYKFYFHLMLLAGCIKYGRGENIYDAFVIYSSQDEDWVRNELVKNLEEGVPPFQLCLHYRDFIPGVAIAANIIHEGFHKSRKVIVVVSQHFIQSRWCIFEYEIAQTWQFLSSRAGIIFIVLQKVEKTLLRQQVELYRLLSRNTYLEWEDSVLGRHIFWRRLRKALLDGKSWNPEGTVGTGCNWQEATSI
T1 sequence (Q9Y6Y9 17-160 limits assumed): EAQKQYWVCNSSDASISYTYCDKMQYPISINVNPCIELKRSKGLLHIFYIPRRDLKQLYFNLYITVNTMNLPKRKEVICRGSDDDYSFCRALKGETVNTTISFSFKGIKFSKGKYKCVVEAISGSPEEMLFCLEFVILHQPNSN
Protocol: as §2, §3, §4
While sufficient CM3 protein was secreted into the media, 0.19 ATI had to be isolated from the detergent-soluble fraction. Briefly, HEK-cells expressing 0.19 were washed with ice cold-PBS, resuspended in 50 ml of buffer C for 15 min on ice, and centrifuged at 14,000 rpm for 20 min at 4° C. Thus, the solubilized 0.19 and soluble CM3 were bound to Flag-M2 agarose (Sigma-Aldrich) pre-equilibrated with buffer C by gentle shaking for 3 h at 4° C., washed three times with buffer C, and further washed three times with buffer D (Buffer C without detergents). Bound ATIs were eluted with TBS [pH 7.4] containing Flag peptide (Sigma-Aldrich). In order to rigorously exclude endotoxin, eluted CM3 and 0.19 were also applied to an entotoxin removal column (Norgen Biotek corp., Thorold, ON, Canada). ATIs were the used at 5 μg/ml to stimulate HEK-293 cells stably transfected with the TLR4-CD14-MD2 complex, and IL-8 secretion was quantified after 24 h using the IL-8 ELISA as described above.

[4] = system: human monocyte-derived dendritic cells (DC); assay: Cytokine secretion by human monocyte-derived dendritic cells (ELISA); format: cell-based
Protocol: For isolation of peripheral monocytes 40 ml blood was obtained from 11 patients with celiac disease during their diagnostic workup (median 37 years, range 18-59 years), after prior informed consent Eight patients were on gluten free diet and in clinical remission, three patients were newly diagnosed and therefore on a regular gluten containing diet Control monocytes were from the buffy coat of leukopheresis concentrates of anonymous blood donors. Whole EDTA blood or leukapheresis concentrates were subjected to density gradient centrifugation over Ficoll-Hypaque (GE Healthcare, Pittsburgh, PA) and CD14-positive monocytes purified by MACS separation according to the manufacturer's protocol (Miltenyi, Bergisch Gladbach, Germany). For generation of dendritic cells, monocytes were cultured in RPMI supplemented with 10% fetal calf serum, 200 U/ml rhIL-4 and 300 U/ml rhGM-CSF (both from PeproTech, Rocky Hill, NJ) for 6-8 days.
For stimulation cells were seeded on polystyrene wells at a density of 1×10^6/ml. […]
as §4

TLR4-pathway = assay: Downstream signaling by CM3 and 0.19 overexpression in TLR4-CD14-MD2 expressing HEK-293 cells (Western blot); format: cell-based; details: overexpression in TLR4/MD2/CD14 expressing HEK-293 cells
Protocol: FIG. 9D is a western blot showing expression of CM3 and 0.19 in TLR4-CD14-MD2 expressing HEK-293 cells (HEK-TLR4) induces downstream signaling of the canonical (p-NF-κB/p65) and the alternative (p-IRF3) pathways. Western blots of whole cell lysates (50 μg protein).
HEK-293 cells stably expressing TLR4-CD14-MD2 were induced to express CM3 or 0.19, respectively, followed by cell lysis in buffer C. Lysates were cleared by centrifugation at 14,000 rpm for 20 min at 4° C., and 50 μg of protein run on a 15% SDS-gel and subjected to Western blotting to analyze activation of the canonical and the alternative (p-IRF3) pathways using antibodies to phosphorylated and unphosphorylated (p-NF-κB/p65) and IRF3 (all from Cell Signaling Technology, Danvers, MA).

Molecule: LGQQQPFPPQQPY [p31-43, Peptide p31-43 of α-gliadin]
IL-8 secretion (THP-1; even at 40 μg/ml): did not elicit secretion | MCP-1 secretion (THP-1; even at 40 μg/ml): did not elicit secretion | TNF-α secretion (THP-1; even at 40 μg/ml): did not elicit secretion | IL-8 secretion (U937): did not elicit secretion | MCP-1 secretion (U937): did not elicit secretion | TNF-α secretion (U937): did not elicit secretion | IL-8 secretion [1]: did not elicit secretion | MCP-1 secretion [1]: did not elicit secretion | TNF-α secretion [1]: did not elicit secretion | IL-15 secretion (celiac biopsies): increases IL-15 secretion

Molecule: TNF-α
IL-8 induction after proteinase K digestion of the stimulant (THP-1; 20 μg/ml proteinase K, 4 hrs at 56° C., FIG. 1F): lost its stimulatory capacity

The next lines start with results.

IL-8 secretion [3]: absence of IL-8 induction
Molecule: N-Palmitoyl-S-[2,3-bis(palmitoyloxy)-(2RS)-propyl]-[R]-cysteinyl-[S]-seryl-[S]-lysyl-[S]-lysyl-[S]-lysyl-[S]-lysine x3 HCl [Pam3CSK4]
KC (IL-8) secretion [2]: equally high amounts | TNF-α secretion [2]: equally high amounts

IL-8 secretion [3]: stimulated
B1: CM3: recombinant flag-tagged wheat alpha amylase inhibitor CM3 (SEQ ID NO: 1) expressed in HEK-293 cells (protein)
chain: MACKSSCSLLLLAAVLLSVLAAASASGSCVPGVAFRTNLLPHCRDYVLQQTCGTFTPGSLPEWMTSASIYSPGKPYLAKLYCCQELAEISQQCRCEALRYFIALPVPSQPVDPRSGNVGESGLIDLPGCPREMQWDFVRLLVAPGQCNLATIHNVRYCPAVEQPLWIDYKDDDDK
modifications: FLAG tag
IL-8 secretion [4]: upregulated IL-8 secretion | stimulatory activity after additional purification using an endotoxin depletion column [3]: maintained | alternative TLR4-pathway (p-IRF3) (TLR4-pathway): strongly induced | canonical TLR4-pathway (p-NF-κB/p65) (TLR4-pathway): strongly induced

IL-8 secretion [3]: stimulated
B2: 0.19: recombinant flag-tagged wheat alpha amylase inhibitor 0.19 (SEQ ID NO: 2) expressed in HEK-293 cells (protein, listed as Triticum aestivum)
chain: SGPWMCYPGQAFQVPALPACRPLLRLQCNGSQVPEAVLRDCCQQLAHISEWCRCGALYSMLDSMYKEHGAQEGQAGTGAFPRCRREVVKLTAASITAVCRLPIVVDASGDGAYVCKDVAAYPD
modifications: FLAG tag
stimulatory activity after additional purification using an endotoxin depletion column [3]: maintained | alternative TLR4-pathway (p-IRF3) (TLR4-pathway): strongly induced | canonical TLR4-pathway (p-NF-κB/p65) (TLR4-pathway): strongly induced
